Assay results taken from US5208148A, “Lipophilic fluorescent glycosidase substrates” (Molecular Probes, Inc., priority 1990, dated 1993).
“Also recorded” adds a separate entry of the source. Where a name gives a salt, the structure may show the parent alone. Read-outs that look alike come from different tables or passages of the source.

Key:
[1] = tested on: lacZ+ cell; test: Examination of galactosidase activity of sorted cells with resorufin galactoside; format: cell-based; conditions: 0.5 mM, 0.1 M phosphate buffer, 0.1% Triton X-100
Method: The sorted cell is collected in a 96 well microtiter plate (Corning, N.Y.). The cell galactosidase activity is examined by means of the permeant fluorogenic substrate resorufin galactoside (Molecular Probes, Inc., Eugene, OR). To 20 μl cell sample in a microtiter well, is added 200 μl of a 0.5 mM resorufin galactoside solution in 0.1 M phosphate buffer containing 1 mM MgCl2 and 0.1% Triton X-100. After 1 hour incubation, the plate is read in a CYTOFLUOR™ fluorescence plate reader (Millipore, Bedford, Mass.) with excitation at 560 nm, emission at 645 nm, sensitivity=1. A fluorescence reading below 20 can be scored lacZ- cell and a reading higher than 60 can be scored lacZ+. The resorufin galactoside can detect the enzyme activity in a single lacZ^+ cell within 1 hour.

[2] = tested on: plant cell populations; conditions: cited from earlier work
[3] = target: T1, β-galactosidase (Escherichia coli, UniProt P00722); test: In vitro kinetic assay of galactosidase substrates (absorbance increase at 490 nm); format: biochemical; conditions: in buffer, pH 7.0, room temperature; for Km: read-out: KM (Michaelis constant)
T1 construct: purchased Sigma Chemical Co., St. Louis, Mo
Text: There are two parameters to describe the catalytic reaction of an enzyme on its substrate. The turnover rate k2, i.e. the substrate conversion rate by one unit of enzyme, can be expressed as μmol/(minute·mg). The Michaelis constant KM which gives the substrate binding ability to an enzyme (the smaller is KM, the higher is binding ability), can be expressed as μM. The relevant data for turnover of five lipophilic FDG substrates by β-galactosidase is detailed in Table 2.
The substrates have essentially no absorbance at 490 nm while their hydrolysis products from reaction with β-galactosidase have a strong absorbance at this wavelength. Using the extinction coefficients of the products, the substrate hydrolysis rate can be determined by the absorbance increase at 490 nm (Table 2).
13.8 g NaH2 PO4.H2 O, 0.2 g MgCl2.6H2 O and 7 mL liquid 2-mercaptoethanol are dissolved in 1 liter distilled water and adjusted to pH 7.0 using NaOH.
The glycosidase substrates are dissolved at 5 mg/mL in anhydrous DMSO.
β-Galactosidase (Sigma Chemical Co., St. Louis, Mo.) is dissolved at 1 mg/mL in water. This solution is stable for 24 hours at room temperature.
A series of substrate concentrations between 1 μM and 1 mM in 2.8 mL of the assay buffer is prepared and pipetted into a cuvette. 0.2 mL of a 1 mg/mL solution of β-galactosidase in water is added in the cuvette at room temperature to initiate the enzymatic reaction and the absorbance increase at 490 nm is immediately recorded in the spectrophotometer equipped with a chart recorder set at a speed of 10 mm/min. The enzyme reaction rate is calculated using an appropriate product extinction coefficient. Double reciprocal plotting of reaction rate and substrate concentration will yield the turnover rate and Michaelis constant (Stryer, BIOCHEMISTRY p. 189 (W. H. Freeman & Co., N.Y. 1988)).

[4] = tested on: CRE BAG 2 (lacZ+) cells; test: Labeling of lacZ+ cells with fluorogenic substrate, fluorescence microscopy; format: cell-based, mouse; conditions: 60 μM
Text: The photographs were taken under a Zeiss Axioplan Microscope equipped with FITC filter set using Fujichrome p1600 color reversal (slide) film. This film was then commercially developed. The black and white photographs were printed from color slides under the following conditions: 1)Internegative using Ilford Panf film, exposed for 1/60 sec. at f11;2) black and white prints on Kodak polycontrast III paper.
(§1) CRE BAG 2 (lacZ+) cells were used to test the effectiveness of the substrate in labeling lacZ+ cells. NIH3T3 (lacZ-) cells were used as a control. Both cell lines were obtained from American Type Culture Collection Co., Rockville, Md. The cells were grown in a humidified atmosphere of 5% CO2 in Dulbecco's modified Eagle's medium (DMEM) supplemented with 10% calf serum, 50 μg/ml gentamycin, 300 μg/ml L-glutamine and 10 mM HEPES pH 7.4 (culture medium).
(§2) to 1.0 mg of 5-fattyacylaminofluorescein di-β-galactopyranoside substrate (C12 FDG) was added 0.1193 ml of 20% DMSO to get 10 mM stock solution. Stock solutions were kept sealed in the brown bottle and stored at 4° C.
(§3) […] Labeling culture medium was filter-sterilized by passing through an ACRODISC™ filter (0.20 μm pore size).
Cells were washed with fresh (non-labeling) culture medium before examination. […] After 6 hrs., the fluorescence intensity in CRE BAG 2 cells reached its highest level.

[5] = tested on: NIH3T3 (lacZ-) cells; test: Labeling of lacZ- control cells with fluorogenic substrate, fluorescence microscopy; format: cell-based, mouse; conditions: 60 μM, after 1 hr. incubation
Method: as §1, §2, §3
Cells were washed with fresh (non-labeling) culture medium before examination. Cells were observed using a microscope equipped with a fluorescein filter. […] After 6 hrs., the fluorescence intensity in CRE BAG 2 cells reached its highest level.

[6] = tested on: cells; test: Cytotoxicity of the labeling reagent for cultured cells; format: cell-based; conditions: for toxicity effects on labelled cells: concentration up to 100 mM
[7] = tested on: GUS gene positive tobacco plant cells; test: Detection of GUS gene expression in transformed plant cells; format: cell-based; conditions: 100 μM, 4 h incubation, GUS+ versus control cells
Method: In our cellular assay, the tobacco plant with and without the GUS gene (CaMV35S-GUS, cauliflower mosaic virus 35S promoter with the coding region of GUS) were used. (Ref: Jefferson, R.A., EMBO J., 1987, 6, 3901-3907).
Sections of the stem of both plants were cultured on Murashige and Skoog basal medium with sucrose and agar inside of plant culture dish at 2000 lux, 18 h day, 26° C. The calli were collected from the dishes, cut to small pieces and transferred to liquid medium (in screw cap 50 ml Erlenmeyer flasks) to get cell suspension with shaking (120 rpm) at the culture room. Sterilized 1 mM FA910 solution (in water) was added to the cell suspension to final concentration of 100μM. After incubating cells in normal condition for 4 h, take 1 ml of suspension, spin down the cells. The cells were resuspended in 100 μl of fresh culture medium, placed onto glass slide, covered with a cover glass and sealed with wax.
Both the GUS+ and control tobacco cells were examined under a Zeiss microscope equipped with FITC filter set. Photographs were taken of both fluorescent and Nomaski images (Fujichrome P1600D, color reversal film, daylight).

T1 sequence (P00722 2-1024): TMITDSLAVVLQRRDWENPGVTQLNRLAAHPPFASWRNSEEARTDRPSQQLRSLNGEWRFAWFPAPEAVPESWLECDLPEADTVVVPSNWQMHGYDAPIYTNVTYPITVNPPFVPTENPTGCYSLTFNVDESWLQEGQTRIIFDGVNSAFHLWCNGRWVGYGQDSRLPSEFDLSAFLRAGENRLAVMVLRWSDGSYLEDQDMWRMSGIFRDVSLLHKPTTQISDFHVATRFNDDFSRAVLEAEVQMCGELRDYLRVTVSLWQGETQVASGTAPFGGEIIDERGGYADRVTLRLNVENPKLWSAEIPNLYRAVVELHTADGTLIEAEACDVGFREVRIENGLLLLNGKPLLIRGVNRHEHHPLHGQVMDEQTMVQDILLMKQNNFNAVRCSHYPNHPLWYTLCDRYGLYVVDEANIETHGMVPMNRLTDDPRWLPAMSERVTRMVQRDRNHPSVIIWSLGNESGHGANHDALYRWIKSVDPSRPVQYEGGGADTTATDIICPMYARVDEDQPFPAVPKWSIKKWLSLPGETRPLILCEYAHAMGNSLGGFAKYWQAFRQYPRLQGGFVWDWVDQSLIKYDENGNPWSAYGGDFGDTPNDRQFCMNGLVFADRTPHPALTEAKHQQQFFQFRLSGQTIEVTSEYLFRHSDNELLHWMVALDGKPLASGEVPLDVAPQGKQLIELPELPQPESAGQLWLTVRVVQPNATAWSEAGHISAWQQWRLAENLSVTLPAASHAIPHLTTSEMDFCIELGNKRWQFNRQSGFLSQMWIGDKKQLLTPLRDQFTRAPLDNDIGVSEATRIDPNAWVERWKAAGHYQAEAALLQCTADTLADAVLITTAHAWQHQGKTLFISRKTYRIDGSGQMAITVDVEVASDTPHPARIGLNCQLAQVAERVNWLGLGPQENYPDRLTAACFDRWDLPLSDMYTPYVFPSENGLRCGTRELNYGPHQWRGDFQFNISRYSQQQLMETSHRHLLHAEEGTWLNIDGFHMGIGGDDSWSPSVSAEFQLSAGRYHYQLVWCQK

Compound | toxicity to the cells [2] | k2 (turnover rate) [3] [µmol/min/mg] | Km [3] [µM] | toxicity effects on labelled cells [6] | also measured
O=c1ccc2nc3ccc(O[C@@H]4O[C@H](CO)[C@H](O)[C@H](O)[C@H]4O)cc3oc-2c1 [resorufin galactoside] |  |  |  |  | time to detect enzyme activity in a single lacZ+ cell [1]: ≤ 1 h
fluorescein isothiocyanate [FITC] | non-toxic |  |  |  | toxicity to the cells at high levels ([2]; high levels): toxic at high levels
CCCCCCCCCCCCCCCCCC(=O)Nc1ccc2c(c1)C(=O)OC21c2ccc(O)cc2Oc2cc(O)ccc21 [Example F18, octadecanoyl aminofluorescein] | non-toxic |  |  |  | 
CCCCCCCCCCCC(=O)Nc1ccc2c(c1)C(=O)OC21c2ccc(O[C@@H]3O[C@H](CO)[C@H](O)[C@H](O)[C@H]3O)cc2Oc2cc(O[C@@H]3O[C@H](CO)[C@H](O)[C@H](O)[C@H]3O)ccc21 [C12 FDG, 5-DODECANOYLAMINOFLUORESCEIN DI-β-D-GALACTOPYRANOSIDE] |  | 0.0537 | 0.316 | no detectible toxicity effects | time at which fluorescence intensity in CRE BAG 2 cells reached its highest level [4]: 6 h; fluorescence inside CRE BAG 2 cells ([4]; after 1 hr. incubation): fluorescence was observed inside CRE BAG 2 cells; fluorescence in 3T3 cells [5]: not in 3T3 cells; population doubling time compared with control ([6]; 60 μM labeling medium): same population doubling time as the control; population doubling time compared with control ([6]; 0.2 mM in the culture medium): same population doubling time as the control; morphology and viability of cells ([6]; grown in 0.2 mM for 10 days): normal morphology and remained viable; also recorded: normal in morphology and appearance; second generation of subcultured cells ([6]; preincubated in 60 μM for 24 hrs.): cells of second generation were normal; second generation of subcultured cells ([6]; preincubated in the labeled culture medium for 24 hrs.): cells of the second generation were normal
rhodamine isothiocyanate [RITC] | non-toxic |  |  |  | toxicity to the cells at high levels [2]: toxic at high levels
O=C1OC2(c3ccc(O[C@@H]4O[C@H](CO)[C@H](O)[C@H](O)[C@H]4O)cc3Oc3cc(O[C@@H]4O[C@H](CO)[C@H](O)[C@H](O)[C@H]4O)ccc32)c2ccccc21 [C0 FDG, fluorescein di-62-galactopyranoside, reference compound] |  | 1.90 | 18 |  | 
CCCCCCCCCCCCCCCC(=O)Nc1ccc2c(c1)C(=O)OC21c2ccc(O[C@@H]3O[C@H](CO)[C@H](O)[C@H](O)[C@H]3O)cc2Oc2cc(O[C@@H]3O[C@H](CO)[C@H](O)[C@H](O)[C@H]3O)ccc21 [C16 FDG] |  | 0.273 | 1.06 | no detectible toxicity effects | 
CCCCCCCCCCCCCCCCCC(=O)Nc1ccc2c(c1)C(=O)OC21c2ccc(O[C@@H]3O[C@H](CO)[C@H](O)[C@H](O)[C@H]3O)cc2Oc2cc(O[C@@H]3O[C@H](CO)[C@H](O)[C@H](O)[C@H]3O)ccc21 [C18 FDG] |  | 8.28 | 20.8 | no detectible toxicity effects | 
CCCCCCCCCCCC(=O)Nc1ccc2c(c1)C(=O)OC21c2ccc(O[C@@H]3O[C@H](C(=O)O)[C@@H](O)[C@H](O)[C@H]3O)cc2Oc2cc(O[C@@H]3O[C@H](C(=O)O)[C@@H](O)[C@H](O)[C@H]3O)ccc21 [FA910, 5-DODECANOYLAMINOFLUORESCEIN DI-β-D-GLUCOPYRANOSIDURONIC ACID, DI-LITHIUM SALT] |  |  |  |  | staining of tobacco cells (yellowish-green fluorescence) [7]: Only the GUS gene positive tobacco plant cells were stained
CCCCCCCCCCCCCCCCCCOC(=O)c1ccccc1-c1c2ccc(=[N+](CC)CC)cc-2oc2cc(N(CC)CC)ccc12 [Example R18, octadecyl rhodamine B] | non-toxic |  |  |  | 
